# Assay results as given in the supplement of paper PMC10307832.
# Experiments:
# Assay in all cases: relative viability (nuclei count vs DMSO), 5 days (fraction); higher = more cells survive
# Sorafenib + AZD7762 = compound: CNC(=O)c1cc(Oc2ccc(NC(=O)Nc3ccc(Cl)c(C(F)(F)F)c3)cc2)ccn1 [Sorafenib] + NC(=O)Nc1cc(-c2cccc(F)c2)sc1C(=O)N[C@H]1CCCNC1 [AZD7762] (partner 0.2 µM)
# Method in brief: (§1)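 Values are medians from duplicate plates. Each reflects relative viability, defined as the nuclei count of treated wells over that of vehicle wells. Lung cancer cell lines in 1536-well plates were pin-tool dosed one day after seeding with one drug alone or with a fixed anchor-drug dose plus five library-drug doses (not always all listed) in √10 steps, then fixed, stained and imaged at 4× after 5 days.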
# Sorafenib + Decitabine = compound: CNC(=O)c1cc(Oc2ccc(NC(=O)Nc3ccc(Cl)c(C(F)(F)F)c3)cc2)ccn1 [Sorafenib] + Nc1ncn([C@H]2C[C@H](O)[C@@H](CO)O2)c(=O)n1 [Decitabine] (partner 2 µM)
# Method in brief: as §1
# Sorafenib + Palbociclib = compound: CNC(=O)c1cc(Oc2ccc(NC(=O)Nc3ccc(Cl)c(C(F)(F)F)c3)cc2)ccn1 [Sorafenib] + CC(=O)c1c(C)c2cnc(Nc3ccc(N4CCNCC4)cn3)nc2n(C2CCCC2)c1=O [Palbociclib] (partner 0.5 µM)
# Method in brief: as §1
# Sorafenib + Phenformin = compound: CNC(=O)c1cc(Oc2ccc(NC(=O)Nc3ccc(Cl)c(C(F)(F)F)c3)cc2)ccn1 [Sorafenib] + N=C(N)NC(=N)NCCc1ccccc1 [Phenformin] (partner 250 µM)
# Method in brief: as §1
# Sorafenib + Dasatinib = compound: CNC(=O)c1cc(Oc2ccc(NC(=O)Nc3ccc(Cl)c(C(F)(F)F)c3)cc2)ccn1 [Sorafenib] + Cc1nc(Nc2ncc(C(=O)Nc3c(C)cccc3Cl)s2)cc(N2CCN(CCO)CC2)n1 [Dasatinib] (partner 0.075 µM)
# Method in brief: as §1
# Sorafenib + Olaparib = compound: CNC(=O)c1cc(Oc2ccc(NC(=O)Nc3ccc(Cl)c(C(F)(F)F)c3)cc2)ccn1 [Sorafenib] + O=C(c1cc(Cc2n[nH]c(=O)c3ccccc23)ccc1F)N1CCN(C(=O)C2CC2)CC1 [Olaparib] (partner 8 µM)
# Method in brief: as §1
# Sorafenib + OSI-027 = compound: CNC(=O)c1cc(Oc2ccc(NC(=O)Nc3ccc(Cl)c(C(F)(F)F)c3)cc2)ccn1 [Sorafenib] + COc1cccc2cc(-c3nc([C@H]4CC[C@H](C(=O)O)CC4)n4ncnc(N)c34)[nH]c12 [OSI-027] (partner 0.5 µM)
# Method in brief: as §1
# Sorafenib + Vorinostat = compound: CNC(=O)c1cc(Oc2ccc(NC(=O)Nc3ccc(Cl)c(C(F)(F)F)c3)cc2)ccn1 [Sorafenib] + O=C(CCCCCCC(=O)Nc1ccccc1)NO [Vorinostat] (partner 1 µM)
# Method in brief: as §1
# Sorafenib + Luminespib = compound: CNC(=O)c1cc(Oc2ccc(NC(=O)Nc3ccc(Cl)c(C(F)(F)F)c3)cc2)ccn1 [Sorafenib] + CCNC(=O)c1noc(-c2cc(C(C)C)c(O)cc2O)c1-c1ccc(CN2CCOCC2)cc1 [Luminespib] (partner 0.01 µM)
# Method in brief: as §1
# Sorafenib + Tozasertib = compound: CNC(=O)c1cc(Oc2ccc(NC(=O)Nc3ccc(Cl)c(C(F)(F)F)c3)cc2)ccn1 [Sorafenib] + Cc1cc(Nc2cc(N3CCN(C)CC3)nc(Sc3ccc(NC(=O)C4CC4)cc3)n2)n[nH]1 [Tozasertib] (partner 0.1 µM)
# Method in brief: as §1
# Sorafenib + Pemetrexed = compound: CNC(=O)c1cc(Oc2ccc(NC(=O)Nc3ccc(Cl)c(C(F)(F)F)c3)cc2)ccn1 [Sorafenib] + Nc1nc2[nH]cc(CCc3ccc(C(=O)N[C@@H](CCC(=O)O)C(=O)O)cc3)c2c(=O)[nH]1 [Pemetrexed] (partner 0.2 µM)
# Method in brief: as §1
# Sorafenib + Trametinib = compound: CNC(=O)c1cc(Oc2ccc(NC(=O)Nc3ccc(Cl)c(C(F)(F)F)c3)cc2)ccn1 [Sorafenib] + CC(=O)Nc1cccc(-n2c(=O)n(C3CC3)c(=O)c3c(Nc4ccc(I)cc4F)n(C)c(=O)c(C)c32)c1 [Trametinib] (partner 0.02 µM)
# Method in brief: as §1
# Sorafenib = compound: CNC(=O)c1cc(Oc2ccc(NC(=O)Nc3ccc(Cl)c(C(F)(F)F)c3)cc2)ccn1 [Sorafenib]
# Method in brief: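 Lung cancer cell lines were seeded into 1536-well plates, kept overnight at 37 °C and pinned with five library-drug doses (not always all listed) spaced by √10. After 5 days, nuclei were Hoechst-stained, imaged at 4× and counted with MetaXpress. Viability is treated-well nuclei over vehicle-well nuclei, taken as a median across plates. Plates needed control CV below 25% and at least one doubling.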
# Sorafenib + Foretinib = compound: CNC(=O)c1cc(Oc2ccc(NC(=O)Nc3ccc(Cl)c(C(F)(F)F)c3)cc2)ccn1 [Sorafenib] + COc1cc2c(Oc3ccc(NC(=O)C4(C(=O)Nc5ccc(F)cc5)CC4)cc3F)ccnc2cc1OCCCN1CCOCC1 [Foretinib] (partner 0.25 µM)
# Method in brief: as §1
# Sorafenib + Navitoclax = compound: CNC(=O)c1cc(Oc2ccc(NC(=O)Nc3ccc(Cl)c(C(F)(F)F)c3)cc2)ccn1 [Sorafenib] + CC1(C)CCC(c2ccc(Cl)cc2)=C(CN2CCN(c3ccc(C(=O)NS(=O)(=O)c4ccc(N[C@H](CCN5CCOCC5)CSc5ccccc5)c(S(=O)(=O)C(F)(F)F)c4)cc3)CC2)C1 [Navitoclax] (partner 0.5 µM)
# Method in brief: as §1
# Sorafenib + Pictilisib = compound: CNC(=O)c1cc(Oc2ccc(NC(=O)Nc3ccc(Cl)c(C(F)(F)F)c3)cc2)ccn1 [Sorafenib] + CS(=O)(=O)N1CCN(Cc2cc3nc(-c4cccc5[nH]ncc45)nc(N4CCOCC4)c3s2)CC1 [Pictilisib] (partner 1 µM)
# Method in brief: as §1
# Sorafenib + Lapatinib = compound: CNC(=O)c1cc(Oc2ccc(NC(=O)Nc3ccc(Cl)c(C(F)(F)F)c3)cc2)ccn1 [Sorafenib] + CS(=O)(=O)CCNCc1ccc(-c2ccc3ncnc(Nc4ccc(OCc5cccc(F)c5)c(Cl)c4)c3c2)o1 [Lapatinib] (partner 2 µM)
# Method in brief: as §1
# Sorafenib + Bortezomib = compound: CNC(=O)c1cc(Oc2ccc(NC(=O)Nc3ccc(Cl)c(C(F)(F)F)c3)cc2)ccn1 [Sorafenib] + CC(C)C[C@H](NC(=O)[C@H](Cc1ccccc1)NC(=O)c1cnccn1)B(O)O [Bortezomib] (partner 0.002 µM)
# Method in brief: as §1
# Sorafenib + Linsitinib = compound: CNC(=O)c1cc(Oc2ccc(NC(=O)Nc3ccc(Cl)c(C(F)(F)F)c3)cc2)ccn1 [Sorafenib] + C[C@]1(O)C[C@@H](c2nc(-c3ccc4ccc(-c5ccccc5)nc4c3)c3c(N)nccn32)C1 [Linsitinib] (partner 1 µM)
# Method in brief: as §1
# Sorafenib + Alpelisib = compound: CNC(=O)c1cc(Oc2ccc(NC(=O)Nc3ccc(Cl)c(C(F)(F)F)c3)cc2)ccn1 [Sorafenib] + Cc1nc(NC(=O)N2CCC[C@H]2C(N)=O)sc1-c1ccnc(C(C)(C)C(F)(F)F)c1 [Alpelisib] (partner 2 µM)
# Method in brief: as §1
# Sorafenib + Crizotinib = compound: CNC(=O)c1cc(Oc2ccc(NC(=O)Nc3ccc(Cl)c(C(F)(F)F)c3)cc2)ccn1 [Sorafenib] + C[C@@H](Oc1cc(-c2cnn(C3CCNCC3)c2)cnc1N)c1c(Cl)ccc(F)c1Cl [Crizotinib] (partner 1 µM)
# Method in brief: as §1
cell line,measurement,setting,value
NCI-H522,relative viability,Sorafenib + AZD7762; first compound 0.08 µM,1.1
same,relative viability,Sorafenib + AZD7762; first compound 0.253 µM,0.556
same,relative viability,Sorafenib + AZD7762; first compound 2.53 µM,0.874
same,relative viability,Sorafenib + AZD7762; first compound 8 µM,0.723
same,relative viability,Sorafenib + Decitabine; first compound 0.08 µM,0.645
same,relative viability,Sorafenib + Decitabine; first compound 0.253 µM,0.686
same,relative viability,Sorafenib + Decitabine; first compound 2.53 µM,0.657
same,relative viability,Sorafenib + Decitabine; first compound 8 µM,0.648
same,relative viability,Sorafenib + Palbociclib; first compound 0.08 µM,0.988
same,relative viability,Sorafenib + Palbociclib; first compound 0.253 µM,0.92
same,relative viability,Sorafenib + Palbociclib; first compound 2.53 µM,1.2
same,relative viability,Sorafenib + Palbociclib; first compound 8 µM,0.591
same,relative viability,Sorafenib + Phenformin; first compound 0.08 µM,0.512
same,relative viability,Sorafenib + Phenformin; first compound 0.253 µM,0.526
same,relative viability,Sorafenib + Phenformin; first compound 2.53 µM,0.695
same,relative viability,Sorafenib + Phenformin; first compound 8 µM,0.478
same,relative viability,Sorafenib + Dasatinib; first compound 0.08 µM,0.904
same,relative viability,Sorafenib + Dasatinib; first compound 2.53 µM,0.859
same,relative viability,Sorafenib + Dasatinib; first compound 8 µM,0.772
same,relative viability,Sorafenib + Olaparib; first compound 0.08 µM,0.68
same,relative viability,Sorafenib + Olaparib; first compound 0.253 µM,0.634
same,relative viability,Sorafenib + Olaparib; first compound 2.53 µM,0.775
same,relative viability,Sorafenib + Olaparib; first compound 8 µM,0.541
same,relative viability,Sorafenib + OSI-027; first compound 0.08 µM,0.649
same,relative viability,Sorafenib + OSI-027; first compound 0.253 µM,0.631
same,relative viability,Sorafenib + OSI-027; first compound 2.53 µM,0.672
same,relative viability,Sorafenib + OSI-027; first compound 8 µM,0.552
same,relative viability,Sorafenib + Vorinostat; first compound 0.08 µM,1.02
same,relative viability,Sorafenib + Vorinostat; first compound 0.253 µM,0.81
same,relative viability,Sorafenib + Vorinostat; first compound 2.53 µM,0.89
same,relative viability,Sorafenib + Vorinostat; first compound 8 µM,0.741
same,relative viability,Sorafenib + Luminespib; first compound 0.08 µM,1.28
same,relative viability,Sorafenib + Luminespib; first compound 0.253 µM,1.19
same,relative viability,Sorafenib + Luminespib; first compound 2.53 µM,0.929
same,relative viability,Sorafenib + Luminespib; first compound 8 µM,0.992
same,relative viability,Sorafenib + Tozasertib; first compound 0.08 µM,0.626
same,relative viability,Sorafenib + Tozasertib; first compound 0.253 µM,0.596
same,relative viability,Sorafenib + Tozasertib; first compound 2.53 µM,0.588
same,relative viability,Sorafenib + Tozasertib; first compound 8 µM,0.523
same,relative viability,Sorafenib + Pemetrexed; first compound 0.08 µM,1.02
same,relative viability,Sorafenib + Pemetrexed; first compound 0.253 µM,0.782
same,relative viability,Sorafenib + Pemetrexed; first compound 2.53 µM,0.863
same,relative viability,Sorafenib + Pemetrexed; first compound 8 µM,0.883
same,relative viability,Sorafenib + Trametinib; first compound 0.08 µM,0.789
same,relative viability,Sorafenib + Trametinib; first compound 0.253 µM,0.664
same,relative viability,Sorafenib + Trametinib; first compound 2.53 µM,0.748
same,relative viability,Sorafenib + Trametinib; first compound 8 µM,0.58
same,relative viability,Sorafenib; 0.08 µM,1.04
same,relative viability,Sorafenib; 0.253 µM,0.877
same,relative viability,Sorafenib; 2.53 µM,0.865
same,relative viability,Sorafenib; 8 µM,0.648
NCI-H1299,relative viability,Sorafenib + Olaparib; first compound 0.08 µM,0.903
same,relative viability,Sorafenib + Olaparib; first compound 0.253 µM,0.894
same,relative viability,Sorafenib + Olaparib; first compound 2.53 µM,0.882
same,relative viability,Sorafenib + Olaparib; first compound 8 µM,0.537
same,relative viability,Sorafenib + Foretinib; first compound 0.08 µM,1.09
same,relative viability,Sorafenib + Foretinib; first compound 0.253 µM,1.08
same,relative viability,Sorafenib + Foretinib; first compound 2.53 µM,1.02
same,relative viability,Sorafenib + Foretinib; first compound 8 µM,1.05
same,relative viability,Sorafenib + Navitoclax; first compound 0.08 µM,1.07
same,relative viability,Sorafenib + Navitoclax; first compound 0.253 µM,1.05
same,relative viability,Sorafenib + Navitoclax; first compound 2.53 µM,1.01
same,relative viability,Sorafenib + Navitoclax; first compound 8 µM,0.573
same,relative viability,Sorafenib + Pictilisib; first compound 0.08 µM,0.867
same,relative viability,Sorafenib + Pictilisib; first compound 0.253 µM,0.487
same,relative viability,Sorafenib + Pictilisib; first compound 2.53 µM,0.64
same,relative viability,Sorafenib + Pictilisib; first compound 8 µM,0.253
same,relative viability,Sorafenib + Lapatinib; first compound 0.08 µM,0.933
same,relative viability,Sorafenib + Lapatinib; first compound 0.253 µM,0.86
same,relative viability,Sorafenib + Lapatinib; first compound 2.53 µM,0.874
same,relative viability,Sorafenib + Lapatinib; first compound 8 µM,0.802
same,relative viability,Sorafenib + Bortezomib; first compound 0.08 µM,1.02
same,relative viability,Sorafenib + Bortezomib; first compound 0.253 µM,1.04
same,relative viability,Sorafenib + Bortezomib; first compound 2.53 µM,1.01
same,relative viability,Sorafenib + Bortezomib; first compound 8 µM,0.952
same,relative viability,Sorafenib + Linsitinib; first compound 0.08 µM,0.947
same,relative viability,Sorafenib + Linsitinib; first compound 0.253 µM,0.88
same,relative viability,Sorafenib + Linsitinib; first compound 2.53 µM,0.875
same,relative viability,Sorafenib + Linsitinib; first compound 8 µM,0.946
same,relative viability,Sorafenib + Alpelisib; first compound 0.08 µM,1.06
same,relative viability,Sorafenib + Alpelisib; first compound 0.253 µM,0.982
same,relative viability,Sorafenib + Alpelisib; first compound 2.53 µM,0.962
same,relative viability,Sorafenib + Alpelisib; first compound 8 µM,0.877
same,relative viability,Sorafenib + Crizotinib; first compound 0.08 µM,0.9
same,relative viability,Sorafenib + Crizotinib; first compound 0.253 µM,0.859
same,relative viability,Sorafenib + Crizotinib; first compound 2.53 µM,0.907
same,relative viability,Sorafenib + Crizotinib; first compound 8 µM,0.688
same,relative viability,Sorafenib; 0.08 µM,1.02
same,relative viability,Sorafenib; 0.253 µM,0.963
same,relative viability,Sorafenib; 2.53 µM,0.957
same,relative viability,Sorafenib; 8 µM,0.922
